Measurements published in US20180207249A1, “METHOD AND VACCINE COMPRISING COPOLYMER 1 FOR TREATMENT OF PSYCHIATRIC DISORDERS” (YEDA RESEARCH AND DEVELOPMENT CO. LTD., priority 2003, published 2018).

Key:
[1] = test system: C57BL/6J mice injected with MK-801 or AMPH; assay: Morris water maze (MWM) spatial learning/memory task after psychotomimetic drug; assay type: in vivo, mouse; conditions: C57BL/6J mice immunized 1 week before MK-801
Description: (iii) Immunization. Each animal was injected with a total of 100 μg of Cop-1 emulsified in an equal volume of complete Freund's adjuvant (CPA) containing 5 mg/ml of Mycobacteria H37 RA (Difco). The emulsion, in a total volume of 0.1 mL, was injected into the flank 1 week before the mouse was first injected with a psychotomimetic drug. Control mice were injected with an equal volume of phosphate-buffered saline (PBS) emulsified in CFA.
(vi) Drug solutions. Fresh solutions of dizocilpine maleate (MK-801; Sigma-Aidrich) were prepared in physiological saline (0.9% NaCl in sterile distilled water) for each batch of mice. Physiological saline was also used as a vehicle for D-amphetamine sulfate (AMPH: Sigma). MK-801. (0.1 mg/kg) or AMPH (2.5 mg/kg) or sahne was injected i.p., in a total volume of 5 ml per kg of body weight. Mice were injected with MK-801, AMPH, or vehicle 15 min before being subjected to behavioral tests.
(vii) Morris water maze (MWM) behavioral test. Spatial learning/memory was assessed by performance on a hippocampal-dependent visuospatial learning task in the MWM. Mice were given four trials per day, for four consecutive days, to find a hidden platform located 1.5 cm below the water surface in a pool 1.4 m in diameter. Within the testing room only distal visuo-spatial cues were available to the mice for location of the submerged platform. The escape latency, i.e., the time required by the mouse to find and climb onto the platform, was recorded for up to 60 s. Each mouse was allowed to remain on the platform for 30 s, and was then moved from the maze to its home cage. […] The inter-trial interval was 30 s. On day 5, the platform was removed from the pool, and each mouse was tested by a probe trial for 60 s. On days 6-7 the platform was placed at the opposite, location, and the mouse was retrained in four sessions. Data were recorded by using an EthoVision automated tracking system (Noldus Information Technology, Wageningen, The Netherlands). […]

[2] = test system: Cop-1-reactive T cells; assay: ELISA of BDNF secreted by Cop-1-reactive T cells; assay type: cell-based, Lewis rats; conditions: 48 h stimulation with antigen
Description: (iv) T-cell lines. Ten days after Cop-1 immunization, T-cell lines were generated from draining lymph node cells obtained from Lewis rats immunized with Cop-1 emulsified in CFA. The lymph nodes were surgically removed, dissociated, washed, and then activated with the antigen (10 μg/ml) in stimulation medium as previously reported (Kipnis et al., 2000). The T-cells lines were expanded by repeated stimulation and propagation.
(v) Enzyme-linked immunosorbent assay. T cell-reactive Cop-1 cells were grown for 1 week in a propagation medium, then washed with PBS and re-suspended in stimulation medium. The cultured T cells (0.5×10^6 cells/mL) were then incubated, in the presence of irradiated thymocytes (10^7 cells/mL), with concanavalin A (Con A; 1.25 μg/mL), myelin basic protein (MRP; 10 μg/ml), Cop-1 (10 μg/mL), ovalbumin (OVA; 10 μg/mL), or no antigen, in stimulation medium. After 48 h the cells were centrifaged and their supernatants were collected and sampled. Concentrations of brain-derived neurotrophic factor (BDNF) in the samples were determined with a sensitive sandwich ELISA. In brief 96-well flat-bottomed plates were coated with a chicken anti-human BDNF antibody (Promega, Madison, Wis.) in 0.025 M NaHCO3 and 0.025 M Na2CO3 (pH 8.2). Recombinant human BDNF (used as a standard; Research Diagnostics, Flanders, N.J.) was used in serial dilutions in blocking solution containing 3% bovine serum albumin, 0.05% polyoxyethylene-sorbitan monolaurate (Tween-20), and 1% fetal calf serum in PBS (pH 8.2). Bound BDNF was detected by incubating the plates with a mouse anti-human BDNF antibody (Research Diagnostics) and then with peroxidase-conjugated goat anti-mouse IgG (Jackson ImmunoResearch, West Grove, Pa.) in blocking solution. The plates were developed using a 3,3′,5,5′-tetramethylbenzidine liquid substrate system (Sigma-Aldrich). The reaction was stopped by adding 1M H3PO4, and the optical density was determined at 450 nm. Results for each experiment were calculated as the amount of secreted BDNF per 1 mL of sample, after subtraction of background levels of the irradiated thymocytes incubated with the stimulation medium.
Cop-1-reactive T cells were cultured for 48 h with Cop-1, MBP, ovalbumin, or concanavalin A in stimulation medium. T cell supernatants were collected and subjected to sandwich ELISA. […] Values are mean values (pg/ml) +/− SE (from three independent experiments) of the amounts of BDNF secreted by Cop-1-specific T cells in response to stimulation by various antigens.

[3] = test system: rats exposed to psychotomimetic drugs; assay: Vaccination after exposure to psychotomimetic drugs; assay type: in vivo; conditions: vaccination after drug exposure, not shown

Substance: Copolymer 1 [Cop-1]
- MWM extinction phase, time spent in training quadrant after MK-801 [1]: behaved similarly to WT mice
- Secretion of BDNF by Cop-1-reactive T cells compared with unstimulated T cells [2]: significantly increased
- BDNF secreted by Cop-1-reactive T cells (mean) ([2]; mean of three independent experiments, no antigen 400): 1220 pg/mL
- Effect of vaccination given after psychotomimetic drugs [3]: beneficial
